Laboratory results published in publication doi:10.1101/2025.03.31.646301v1, “Discovery of Tankyrase scaffolding inhibitor specifically targeting the ARC4 peptide binding domain” (biorxiv, 2025).
Where two headings read alike, the source gives them in different places.

How the values were obtained:
TNKS2 ARC4 [1] = molecular target: T1, TNKS2 ARC4 (Homo sapiens, UniProt Q9H2K2); set-up: DSF thermal shift of TNKS2 ARC4, stabilization over DMSO control; details: binder
T1 construct: ankyrin repeat cluster 4 domain; FRET: 6xHis-mCerulean (CFP) fusion; DSF, NMR, crystal: MBP and His tag cleaved by TEV, residues 487-649 printed for crystal; E. coli BL21(DE3)
T1 sequence (Q9H2K2 487-649): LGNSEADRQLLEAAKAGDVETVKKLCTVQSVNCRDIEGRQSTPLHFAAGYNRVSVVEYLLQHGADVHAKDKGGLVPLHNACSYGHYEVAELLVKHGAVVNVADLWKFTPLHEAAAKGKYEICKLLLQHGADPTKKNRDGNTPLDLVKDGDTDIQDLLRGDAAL
Text: Given the notable stabilization of the pyrrolone-based compounds from the Commercials Diversity collection, we decided to focus on their common scaffold for compound optimization. Pyrrolone is indeed a versatile moiety that is largely employed for the design of compounds with a variety of biological effects.[55] The nine primary hits were acquired from commercial suppliers, they underwent quality control, additional DSF validation and determination of potency through FRET-based IC50 measurements (Table 1). All the tested compounds include a benzodioxane moiety (R[1]), a [compound left out] group with substitutions in the para position (R[2]), and an R[3] group with an aliphatic character and a tertiary amine. […] In addition, all molecules, except for 7, have IC50 values below 100 µM. Among the nine molecules, 1 performed the best in terms of stabilization of TNKS2 ARC4 and potency. […] In the same position, the presence of a hydrophobic methyl group (3, 4), other halogen substituents (5) and alkoxy groups (6–9) is also tolerated, even if not optimal. […] A SAR investigation was conducted with purchased and synthesized analogues of 1 through FRET-based potency measurements and DSF assay with TNKS2 ARC4 (Table 2, Table S2). All the compounds commercially acquired underwent quality control. […] Changes to the length of the aliphatic chain at R[3] greatly impacts both potency and protein stabilization. […] The diethylamino-based substituent at R[3] […] Compounds 25 and 26 further indicate that the presence of tertiary amine at R[3] is not necessary to achieve binding. […] 5 Figure S2. DSF assay results for validation of primary hits identified in the EU-OPENSCREEN Commercials Diversity Library. (A) and (B) show DSF assay validation measurements of TNKS2 ARC4 with primary hits from the Commercial Diversity Library. Compounds are tested at 100 μM. They are named after their EU-OPENSCREEN identity codes and the identities are available for consultation on ECBD. 1,2 (A) and (B) show results from two independent experiments. For each experiment, each compound was tested with a single measurement, while controls (TNKS2 ARC4 with 100 μM optimized peptide, TNKS2 ARC4 with 100 μM DMSO) are studied in at least four replicates and errors are shown. Moreover, stabilization over the control (TNKS2 ARC4 with DMSO) is indicated (ΔTm °C). […] It was not possible to measure the melting curve of TNKS2 ARC4 in presence of EOS21552, EOS54043, EOS54043.

TNKS2 ARC4 [2] = molecular target: T1, TNKS2 ARC4; test: biochemical; set-up: FRET competition: inhibition of CFP-ARC domain binding to YFP-REAGDGEE peptide
Procedure: The FRET assay for discovery of chemical probes targeting ARC and SAM domains of tankyrases was developed in a previous study.[52] The high-throughput screening of the EU-OPENSCREEN Pilot and Commercials Diversity libraries was performed at the Norwegian Centre for Molecular Biosciences and Medicine (NCMBM, formerly NCMM). For the primary screen, assay-ready plates containing library compound sufficient to reach a screening concentration of 30 µM were prepared on black shallow-well 384-microwell plates (Greiner bio-one small volume, high base, non-binding microplate black, 784900 or Fisherbrand™ 384-Well ShallowWell Polypropylene Microplates, 12-566-617, Fisher Scientific) using 30 nL of 10 mM DMSO compound stocks dispensed with an Echo 550 [compound left out] handler (Labcyte). Each screening plate also contained DMSO controls at equivalent volumes to compounds for positive, negative, and assay buffer blank controls, 16 wells per control type. Stock solutions of CFP-TNKS2 ARC4 and YFP-REAGDGEE or CFP-SAM(E897K) and YFP-SAM(Y920A) were combined and diluted in assay buffer (10 mM BTP pH 7, 3% weight/volume PEG 20000, 0.01% volume/volume Triton, 0.5 mM TCEP) to final concentrations of 100 nM and 200 nM or 150 and 300 nM, respectively. The positive control was prepared by addition of guanidine hydrochloride to the above assay buffer to a final concentration of 1M. A volume of 10 µL of these solutions was added to each well of the assay-ready plates using a BioTek MultiFlo FX dispenser (Agilent) equipped with 5 uL dispensing cassettes for the peristaltic pumps (screening solution and control) and a syringe pump (assay buffer blank). After [compound left out] handling, plates were incubated at RT for 30 minutes before reading fluorescence using a BioTek Synergy Neo2 plate reader (Agilent) with Gen5 software (version 3.02) at four wavelength combinations – 410/477, 410/527, 430/477, 430/527 – each with an excitation bandwidth of 20 nm and an emission bandwidth of 10 nm; a gain setting of 135; a “Normal” read speed with 10 msec delay after plate movement, 50 measurements per data point, low lamp energy, and a “Standard” dynamic range (0 to 99,999); and a read height of 4.5 mm. A SAR investigation was conducted with purchased and synthesized analogues of 1 through FRET-based potency measurements and DSF assay with TNKS2 ARC4 (Table 2, Table S2). All the compounds commercially acquired underwent quality control. […] Changes to the length of the aliphatic chain at R[3] greatly impacts both potency and protein stabilization. […] The diethylamino-based substituent at R[3] […] Compounds 25 and 26 further indicate that the presence of tertiary amine at R[3] is not necessary to achieve binding.

ΔTm ± SD (°C) (TNKS2 ARC4 [1])	IC50 (TNKS2 ARC4 [2]) [µM]	IC50 (TNKS2 ARC4 [2]; inhibitor) [µM]	SMILES
0.80 ± 0.16	302		O=C(C1=C(O)C(=O)N(CCCN2CCNCC2)C1c1cccc(O)c1)c1ccc2c(c1)OCCO2 (centres unmarked) [S2]
1.20 ± 0.19	133		N=C(N)NCCCN1C(=O)C(O)=C(C(=O)c2ccc3c(c2)OCCO3)C1c1ccccc1 (centres unmarked) [S3]
1.31 ± 0.17	121		N=C(N)NCCCN1C(=O)C(O)=C(C(=O)c2ccc3c(c2)OCCO3)C1c1cccc(O)c1 (centres unmarked) [S5]
-0.03 ± 0.11		> 1000	CN(C)CCCN1C(=O)C(O)=C(C(=O)c2ccc3c(c2)oc(=O)n3C)C1c1ccccc1 (centres unmarked) [compound 27, 27]
-0.20 ± 0.22		> 1000	Cc1ccccc1COc1ccc(C(=O)C2=C(O)C(=O)N(CCCN(C)C)C2c2cccc(O)c2)cc1 (centres unmarked) [compound 28, 28]
0.14 ± 0.25	> 1000		COc1ccc(C(=O)C2=C(O)C(=O)N(CCCN3CCOCC3)C2c2ccccc2)cc1OC (centres unmarked) [compound 29, 29]
0.12 ± 0.25	> 1000		COc1ccc(C(=O)C2=C(O)C(=O)N(CCCN3CCOCC3)C2c2ccc(C)cc2)cc1OC (centres unmarked) [compound 30, 30]
1.46 ± 0.52	136		CCN(CC)CCCN1C(=O)C(O)=C(C(=O)c2ccc(OC)cc2)C1c1ccccc1 (centres unmarked) [compound 31, 31]
0.23 ± 0.25	> 1000		COc1cccc(C(=O)C2=C(O)C(=O)N(CCCN3CCOCC3)C2c2ccccc2)c1 (centres unmarked) [compound 32, 32]
0.36 ± 0.33	> 1000		COc1cccc(C(=O)C2=C(O)C(=O)N(CCCN3CCOCC3)C2c2ccc(C)cc2)c1 (centres unmarked) [compound 33, 33]
-0.08 ± 0.41	> 1000		Cc1cc(C(=O)C2=C(O)C(=O)N(CCCN(C)C)C2c2ccc(O)cc2)ccc1OC(C)C (centres unmarked) [compound 34, 34]
0.82 ± 0.38	305		COCCN1C(=O)C(O)=C(C(=O)c2ccc3c(c2)OCCO3)C1c1cccc(O)c1 (centres unmarked) [compound 35, 35]
0.45 ± 0.25	23		O=C(C1=C(O)C(=O)N(Cc2ccccc2)C1c1cccc(O)c1)c1ccc2c(c1)OCCO2 (centres unmarked) [compound 36, 36]
0.51 ± 0.31	71		Cc1ccc(C2C(C(=O)c3ccc4c(c3)OCCO4)=C(O)C(=O)N2Cc2ccccc2)cc1 (centres unmarked) [compound 37, 37]
0.67 ± 0.28		493	Cc1ccc(C2C(C(=O)c3ccc4c(c3)OCCO4)=C(O)C(=O)N2CCN(C)C)cc1 (centres unmarked) [compound 38, 38]
1.05 ± 0.36		255	CCN(CC)CCN1C(=O)C(O)=C(C(=O)c2ccc3c(c2)OCCO3)C1c1ccccc1 (centres unmarked) [compound 39, 39]
0.47 ± 0.31		360	COCCCN1C(=O)C(O)=C(C(=O)c2ccc3c(c2)OCCO3)C1c1ccccc1 (centres unmarked) [compound 40, 40]
0.91 ± 0.31		65	O=C(C1=C(O)C(=O)N(CCc2ccccc2)C1c1ccccc1)c1ccc2c(c1)OCCO2 (centres unmarked) [compound 41, 41]
2.26 ± 0.34	101		O=C(C1=C(O)C(=O)N(CCCN2CCOCC2)C1c1ccccc1)c1ccc2c(c1)OCCO2 (centres unmarked) [compound 42, 42]
1.61 ± 0.37	114		O=C(C1=C(O)C(=O)N(CCCN2CCOCC2)C1c1ccc(F)cc1)c1ccc2c(c1)OCCO2 (centres unmarked) [compound 43, 43]
0.21 ± 0.26	> 1000		O=C(C1=C(O)C(=O)N(Cc2ccncc2)C1c1ccncc1)c1ccc2c(c1)OCCO2 (centres unmarked) [compound 44, 44]
2.32 ± 0.33		78	COc1cc(C2C(C(=O)c3ccc4c(c3)OCCO4)=C(O)C(=O)N2CCCN2CCOCC2)ccc1O (centres unmarked) [compound 45, 45]
